Data published in US11925612B2, “Bactericidal and virucidal pharmaceutical composition” (Quimica Luar SRL, priority 2015, dated 2024).
Where two headings read alike, the source gives them in different places.

What was measured:
[1] = test system: P. aeruginosa; test: Bactericidal test: CFU count after incubation in PBS buffer; type: cell-based, Pseudomonas aeruginosa; details: for Colony count (UFC/mL ± 10) Pseudomonas: Example 9; for P. aeruginosa count (UFC/mL ± 10) As a function of treatment time: 37° C., Example 6; for concentration at which the number of CFU/mL decreases to 1000: FIG. 11, Example 12
[2] = test system: Burkhordelia cepacia; type: cell-based; details: control 1,300,000; for Colony count (UFC/mL ± 10) Burkhordelia: 4 hours at 37° C., Example 9; for Colony count (UFC/mL ± 10): 4-hour contact at 37° C., Example 8
Description: In this case, tests were run on a non-nutritive liquid carrier (buffer solution) wherein the antimicrobial agent is mixed with quantified inocula of pure bacterial cultures. After different incubation times, the material is seeded on agar plates to perform quantification assays on the number of bacterias surviving the treatment.
When the time for each assay finished, aliquots of 100 uL and decimal dilutions of each tube which were seeded on petri dishes for the direct count of colony forming units (CFU) in Mueller Hinton agar (MHA), using pour-plating or spread-plating standard methods.
During testing, the medium was stored in thermostatic bath between 45-50° C. because the seeding technique requires imbibing and integrating bacteria in the medium.

[3] = test system: Pseudomonas fluorescens; test: Bactericidal test: CFU count after incubation in PBS buffer; type: cell-based; details: 4-hour contact at 37° C., control 100,000, Example 8
[4] = test system: Enterobacter aerogenes; test: as above; type: cell-based; details: 4-hour contact at 37° C., control 1,000,000, Example 8
[5] = test system: Klebsiella pneumoniae; test: as above; type: cell-based; details: 4-hour contact at 37° C., control 1,000,000, Example 8
[6] = test system: Escherichia coli; test: as above; type: cell-based; details: 4-hour contact at 37° C., control 1,000,000, Example 8
[7] = test system: Bacillus subtilis (Gram+); test: as above; type: cell-based; details: 4-hour contact at 37° C., control 500,000, Example 8
[8] = test system: Staphylococcus aureus (Gram+); test: as above; type: cell-based; details: control 1,000,000; for Colony count (UFC/mL ± 10) Staphylococcus: 4 hours at 37° C., Example 9; for Colony count (UFC/mL ± 10) S. aureus: 4-hour at 37° C., Example 15; for Colony count (UFC/mL ± 10): 4-hour contact at 37° C., Example 8
[9] = test system: Enterococcus faecalis (Gram+); test: as above; type: cell-based; details: 4-hour contact at 37° C., control 100,000, Example 8
[10] = test system: artificial biofilm of P. aeruginosa; test: Antimicrobial effect on artificial biofilm (2% alginate solution); type: cell-based, Pseudomonas aeruginosa; details: Biofilm (2% alginate) + ionic strength (1 M NaCl), 4 hours at 37° C., control 2,000,000, Example 21
Description: Work consisted of incubating bacterial populations of a known load in terms of CFU/mL with the compounds mentioned in different molar concentrations. In vitro test batteries were organized at different doses or concentrations and in 1.5 mL Eppendorf tubes without the addition of culture medium. To this purpose, a PBS 100 mM phosphate buffer was used to maintain physiological conditions throughout the period of each test at 37° C. […] Each plate was added with 5 uL of a solution of 2,3,5-metabolic dye triphenyltetrazolium of chloride (TTC) 1% to enhance the contrast of colonies. Plates were incubated in inverted position, in a culture stove for 24-48 hours at 37° C. and subsequently the direct count was done, adjusted by dilution factors and seeding to report results in terms of CFU/mL. […] Treatments lasted 4 hours at 37° C.

For `CC(C)Cc1ccc(C(C)C(=O)O)cc1.[Na]` (stereo not shown) [IBU-Na, SODIUM IBUPROFEN], the “Colony count (UFC/mL ± 10) Pseudomonas” value ([1]; IBU-Na 50 mM, 4 hours at 37° C., control 1,700,000) was 100 UFC/mL, the “P. aeruginosa count (UFC/mL ± 10) As a function of treatment time” value ([1]; IBU-Na 50 mM, 4 hours, control 2,000,000) was 30 UFC/mL and the “P. aeruginosa (UFC/mL ± 10)” value ([1]; IBU-Na 50 mM, Without ionic strength, 4 hours at 37° C., control 1,700,000, Example 12) was 100 UFC/mL. For the same compound, the “P. aeruginosa (UFC/mL ± 10)” value ([1]; IBU-Na 50 mM, pH 7.8, 4 h at 37°, control 200,000, Example 7) was 600 UFC/mL, the “Colony count (UFC/mL ± 10)” value ([1]; IBU-Na 100 mM, 4-hour contact at 37° C., control 2,000,000, Example 8) was 10 UFC/mL and the “P. aeruginosa count (UFC/mL ± 10) As a function of treatment time” value ([1]; IBU-Na 100 mM, 1 hour, control 2,000,000) was 2,000 UFC/mL. For the same compound, the “Colony count (UFC/mL ± 10) Pseudomonas” value ([1]; IBU-Na 100 mM, 4 hours at 37° C., control 1,700,000) was 10 UFC/mL, the “concentration at which the number of CFU/mL decreases to 1000” value ([1]; with ionic strength of NaCl 1 M, 4 hours at 37° C.) was “about 5 mM” and the “concentration at which the number of CFU/mL decreases to 1000” value ([1]; without ionic strength, 4 hours at 37° C.) was 25 mM. For the same compound, the “Colony count (UFC/mL ± 10) Burkhordelia” value ([2]; IBU-Na 5 mM) was 1,300,000 UFC/mL, the “Colony count (UFC/mL ± 10) Burkhordelia” value ([2]; IBU-Na 10 mM) was 1,300,000 UFC/mL and the “Colony count (UFC/mL ± 10) Burkhordelia” value ([2]; IBU-Na 25 mM) was 40,000 UFC/mL. For the same compound, the “Colony count (UFC/mL ± 10)” value ([2]; IBU-Na 50 mM) was 680 UFC/mL, the “Colony count (UFC/mL ± 10) Burkhordelia” value ([2]; IBU-Na 50 mM) was 700 UFC/mL and the “Colony count (UFC/mL ± 10)” value ([2]; IBU-Na 100 mM) was 10 UFC/mL. For the same compound, the “Colony count (UFC/mL ± 10) Burkhordelia” value ([2]; IBU-Na 100 mM) was 10 UFC/mL, the “Colony count (UFC/mL ± 10)” value ([3]; IBU-Na 50 mM) was 150 UFC/mL and the “Colony count (UFC/mL ± 10)” value ([3]; IBU-Na 100 mM) was 10 UFC/mL. For the same compound, the “Colony count (UFC/mL ± 10)” value ([4]; IBU-Na 50 mM) was 450 UFC/mL, the “Colony count (UFC/mL ± 10)” value ([4]; IBU-Na 100 mM) was 10 UFC/mL and the “Colony count (UFC/mL ± 10)” value ([5]; IBU-Na 50 mM) was 600 UFC/mL. The “Colony count (UFC/mL ± 10)” value ([5]; IBU-Na 100 mM) was 10 UFC/mL, the “Colony count (UFC/mL ± 10)” value ([6]; IBU-Na 50 mM) was 500 UFC/mL and the “Colony count (UFC/mL ± 10)” value ([6]; IBU-Na 100 mM) was 10 UFC/mL. For the same compound, the “Colony count (UFC/mL ± 10)” value ([7]; IBU-Na 50 mM) was 250 UFC/mL, the “Colony count (UFC/mL ± 10)” value ([7]; IBU-Na 100 mM) was 10 UFC/mL and the “Colony count (UFC/mL ± 10) Staphylococcus” value ([8]; IBU-Na 5 mM) was 1,000,000 UFC/mL. For the same compound, the “Colony count (UFC/mL ± 10) Staphylococcus” value ([8]; IBU-Na 10 mM) was 1,000,000 UFC/mL, the “Colony count (UFC/mL ± 10) S. aureus” value ([8]; IBU-Na 12.5 mM + ClNa (1M)) was 100 UFC/mL and the “Colony count (UFC/mL ± 10) S. aureus” value ([8]; IBU-Na 25 mM + ClNa (1M)) was 10 UFC/mL. The “Colony count (UFC/mL ± 10) Staphylococcus” value ([8]; IBU-Na 25 mM) was 30,000 UFC/mL, the “Colony count (UFC/mL ± 10) S. aureus” value ([8]; IBU-Na 50 mM + ClNa (1M)) was 10 UFC/mL and the “Colony count (UFC/mL ± 10)” value ([8]; IBU-Na 50 mM) was 550 UFC/mL. For the same compound, the “Colony count (UFC/mL ± 10) Staphylococcus” value ([8]; IBU-Na 50 mM) was 600 UFC/mL, the “Colony count (UFC/mL ± 10)” value ([8]; IBU-Na 100 mM) was 10 UFC/mL and the “Colony count (UFC/mL ± 10) Staphylococcus” value ([8]; IBU-Na 100 mM) was 10 UFC/mL. For the same compound, the “Colony count (UFC/mL ± 10)” value ([9]; IBU-Na 50 mM) was 180 UFC/mL, the “Colony count (UFC/mL ± 10)” value ([9]; IBU-Na 100 mM) was 10 UFC/mL and the “P. aeruginosa (UFC/mL ± 10)” value ([10]; 10 mM) was 25,000 UFC/mL. The “P. aeruginosa (UFC/mL ± 10)” value ([10]; 25 mM) was 200 UFC/mL.
